In ChEMBL document CHEMBL1201862, “PubChem BioAssay data set” (2004):
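Tested at 5 concentrations; 48 h exposure; 96-well plates; endpoints linearly interpolated, else capped at highest concentration. GI50 is the concentration that inhibits growth by half.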 Calls of active or inactive are those of the source. No stated cut-off is given here; in the data, active = GI50 up to about 1.1 µM and inactive = higher.

Experiments:
Assay in all cases: DTP human tumour cell line panel, 48 h
M14 = test system: M14
SK-MEL-2 = test system: SK-MEL-2
Hs-578T = test system: Hs-578T
SW-620 = test system: SW-620
NCI-H522 = test system: NCI-H522
COLO 205 = test system: COLO 205
OVCAR-4 = test system: OVCAR-4
PC-3 = test system: PC-3
CCRF-CEM = test system: CCRF-CEM
T47D = test system: T47D
K562 = test system: K562
HOP-62 = test system: HOP-62
SF-539 = test system: SF-539
SK-MEL-5 = test system: SK-MEL-5
OVCAR-3 = test system: OVCAR-3
HT-29 = test system: HT-29
EKVX = test system: EKVX
MDA-N = test system: MDA-N
HCC 2998 = test system: HCC 2998
SNB-19 = test system: SNB-19
NCI/ADR-RES = test system: NCI/ADR-RES
UO-31 = test system: UO-31
MDA-MB-435 = test system: MDA-MB-435
HL-60 = test system: HL-60
A549 = test system: A549
CAKI-1 = test system: CAKI-1
SF-295 = test system: SF-295
A498 = test system: A498
HCT-15 = test system: HCT-15
KM12 = test system: KM12
RXF 393 = test system: RXF 393
IGROV-1 = test system: IGROV-1
ACHN = test system: ACHN
MOLT-4 = test system: MOLT-4
SF-268 = test system: SF-268
RPMI-8226 = test system: RPMI-8226
NCI-H23 = test system: NCI-H23
OVCAR-5 = test system: OVCAR-5
MCF7 = test system: MCF7
NCI-H460 = test system: NCI-H460
SK-MEL-28 = test system: SK-MEL-28
SN12C = test system: SN12C
UACC-257 = test system: UACC-257
TK-10 = test system: TK-10
SNB-75 = test system: SNB-75
LOX IMVI = test system: LOX IMVI
DU-145 = test system: DU-145
NCI-H226 = test system: NCI-H226
786-0 = test system: 786-0
HCT-116 = test system: HCT-116
Malme-3M = test system: Malme-3M
U-251 = test system: U-251
MDA-MB-231 = test system: MDA-MB-231
OVCAR-8 = test system: OVCAR-8
UACC-62 = test system: UACC-62
SK-OV-3 = test system: SK-OV-3
SR = test system: SR
HOP-92 = test system: HOP-92

N#CCC12CC=CCC1=C(O)C(=O)c1ccc(O)cc12 (centres undefined) was tested, and the GI50 (M14) was 55.7 µM (inactive), the GI50 (SK-MEL-2) was > 100 µM (inactive) and the GI50 (Hs-578T) was 58.1 µM (inactive). For the same compound, the GI50 (SW-620) was > 100 µM (inactive), the GI50 (NCI-H522) was > 100 µM (inactive) and the GI50 (COLO 205) was > 100 µM (inactive). The GI50 (OVCAR-4) was 52 µM (inactive), the GI50 (PC-3) was > 100 µM (inactive) and the GI50 (CCRF-CEM) was > 100 µM (inactive). For the same compound, the GI50 (T47D) was > 100 µM (inactive), the GI50 (K562) was > 100 µM (inactive) and the GI50 (HOP-62) was > 100 µM (inactive). The GI50 (SF-539) was > 100 µM (inactive), the GI50 (SK-MEL-5) was > 100 µM (inactive) and the GI50 (OVCAR-3) was > 100 µM (inactive). For the same compound, the GI50 (HT-29) was > 100 µM (inactive), the GI50 (EKVX) was > 100 µM (inactive) and the GI50 (MDA-N) was > 100 µM (inactive). For the same compound, the GI50 (HCC 2998) was > 100 µM (inactive), the GI50 (SNB-19) was > 100 µM (inactive) and the GI50 (NCI/ADR-RES) was > 100 µM (inactive). The GI50 (UO-31) was 48.6 µM (inactive), the GI50 (MDA-MB-435) was > 100 µM (inactive) and the GI50 (HL-60) was > 100 µM (inactive). For the same compound, the GI50 (A549) was > 100 µM (inactive), the GI50 (CAKI-1) was > 100 µM (inactive) and the GI50 (SF-295) was > 100 µM (inactive). For the same compound, the GI50 (A498) was > 100 µM (inactive), the GI50 (HCT-15) was > 100 µM and the GI50 (KM12) was > 100 µM (inactive). The GI50 (RXF 393) was > 100 µM (inactive), the GI50 (IGROV-1) was > 100 µM (inactive) and the GI50 (ACHN) was > 100 µM (inactive). For the same compound, the GI50 (MOLT-4) was > 100 µM (inactive), the GI50 (SF-268) was > 100 µM (inactive) and the GI50 (RPMI-8226) was > 100 µM (inactive). The GI50 (NCI-H23) was > 100 µM (inactive), the GI50 (OVCAR-5) was > 100 µM (inactive) and the GI50 (MCF7) was > 100 µM (inactive). The GI50 (NCI-H460) was > 100 µM (inactive), the GI50 (SK-MEL-28) was > 100 µM (inactive) and the GI50 (SN12C) was > 100 µM (inactive). For the same compound, the GI50 (UACC-257) was > 100 µM (inactive), the GI50 (TK-10) was > 100 µM (inactive) and the GI50 (SNB-75) was 67.6 µM (inactive). For the same compound, the GI50 (LOX IMVI) was > 100 µM (inactive), the GI50 (DU-145) was > 100 µM (inactive) and the GI50 (NCI-H226) was 68.5 µM (inactive). For the same compound, the GI50 (786-0) was > 100 µM (inactive), the GI50 (HCT-116) was > 100 µM (inactive) and the GI50 (Malme-3M) was > 100 µM (inactive). The GI50 (U-251) was > 100 µM (inactive), the GI50 (MDA-MB-231) was > 100 µM (inactive) and the GI50 (OVCAR-8) was > 100 µM (inactive). For the same compound, the GI50 (UACC-62) was > 100 µM (inactive), the GI50 (SK-OV-3) was > 100 µM (inactive) and the GI50 (SR) was 90.8 µM (inactive).

In the case of COC(=O)c1ccccc1CC1Cc2cc3c(cc2C1)CCC3, the GI50 (M14) is reported as 38.8 µM (inactive), the GI50 (SK-MEL-2) is reported as 19.4 µM (inactive) and the GI50 (Hs-578T) is reported as 45.8 µM (inactive). The GI50 (SW-620) was 53.5 µM (inactive), the GI50 (NCI-H522) was 28.6 µM (inactive) and the GI50 (COLO 205) was 23.8 µM (inactive). The GI50 (OVCAR-4) was 39.5 µM (inactive), the GI50 (PC-3) was 39.3 µM (inactive) and the GI50 (CCRF-CEM) was 20.4 µM (inactive). For the same compound, the GI50 (T47D) was 50.9 µM (inactive), the GI50 (K562) was 23 µM (inactive) and the GI50 (HOP-62) was 41.4 µM (inactive). The GI50 (SF-539) was 54.2 µM (inactive), the GI50 (HOP-92) was 26.9 µM (inactive) and the GI50 (SK-MEL-5) was 25.8 µM (inactive). For the same compound, the GI50 (OVCAR-3) was 32.7 µM (inactive), the GI50 (HT-29) was 29.2 µM (inactive) and the GI50 (EKVX) was 45.5 µM (inactive). For the same compound, the GI50 (MDA-N) was 47.8 µM (inactive), the GI50 (HCC 2998) was 42.5 µM (inactive) and the GI50 (SNB-19) was 74.1 µM (inactive). For the same compound, the GI50 (NCI/ADR-RES) was > 100 µM (inactive), the GI50 (UO-31) was 39.4 µM (inactive) and the GI50 (MDA-MB-435) was 29.4 µM (inactive). For the same compound, the GI50 (HL-60) was 9.75 µM (inactive), the GI50 (A549) was 36.1 µM (inactive) and the GI50 (CAKI-1) was 37.9 µM (inactive). The GI50 (SF-295) was 33.7 µM (inactive), the GI50 (A498) was 49.4 µM (inactive) and the GI50 (HCT-15) was 48.8 µM. For the same compound, the GI50 (KM12) was 26.5 µM (inactive), the GI50 (RXF 393) was 20.9 µM (inactive) and the GI50 (IGROV-1) was 37.3 µM (inactive). For the same compound, the GI50 (ACHN) was 36.6 µM (inactive), the GI50 (MOLT-4) was 18.5 µM (inactive) and the GI50 (SF-268) was 40.8 µM (inactive). For the same compound, the GI50 (RPMI-8226) was 17.3 µM (inactive), the GI50 (NCI-H23) was 38.5 µM (inactive) and the GI50 (OVCAR-5) was 50.4 µM (inactive). The GI50 (MCF7) was 45.9 µM (inactive), the GI50 (NCI-H460) was 48.2 µM (inactive) and the GI50 (SK-MEL-28) was 29.3 µM (inactive). The GI50 (SN12C) was 40.2 µM (inactive), the GI50 (UACC-257) was 31.2 µM (inactive) and the GI50 (TK-10) was > 100 µM (inactive). For the same compound, the GI50 (SNB-75) was 26.7 µM (inactive), the GI50 (LOX IMVI) was 24 µM (inactive) and the GI50 (DU-145) was 40.5 µM (inactive). The GI50 (NCI-H226) was 35.2 µM (inactive), the GI50 (786-0) was 36.5 µM (inactive) and the GI50 (HCT-116) was 22.1 µM (inactive). The GI50 (Malme-3M) was 21.3 µM (inactive), the GI50 (U-251) was 36.5 µM (inactive) and the GI50 (MDA-MB-231) was 55.1 µM (inactive). The GI50 (OVCAR-8) was 56.8 µM (inactive), the GI50 (SK-OV-3) was 49.4 µM (inactive) and the GI50 (SR) was 5.58 µM (inactive).
